In ChEMBL document CHEMBL1152042, “Polyhydroxylated 3-(N-phenyl) carbamoyl-2-iminochromene derivatives as potent inhibitors of tyrosine kinase p60c-src” (Bioorg Med Chem Lett, 1995):

Tests used:
[1] = target: Tyrosine-protein kinase Lyn (Homo sapiens, UniProt P07948); assay: Inhibitory activity against p56 Lyn tyrosine kinase
[2] = target: Tyrosine-protein kinase Fyn (Homo sapiens, UniProt P06241); assay: Inhibitory activity against p55 Fyn tyrosine kinase
[3] = target: Tyrosine-protein kinase Lck (Homo sapiens, UniProt P06239); assay: Inhibitory activity against p56 Lck tyrosine kinase
Tyrosine-protein kinase Lck, sequence (P06239 whole entry): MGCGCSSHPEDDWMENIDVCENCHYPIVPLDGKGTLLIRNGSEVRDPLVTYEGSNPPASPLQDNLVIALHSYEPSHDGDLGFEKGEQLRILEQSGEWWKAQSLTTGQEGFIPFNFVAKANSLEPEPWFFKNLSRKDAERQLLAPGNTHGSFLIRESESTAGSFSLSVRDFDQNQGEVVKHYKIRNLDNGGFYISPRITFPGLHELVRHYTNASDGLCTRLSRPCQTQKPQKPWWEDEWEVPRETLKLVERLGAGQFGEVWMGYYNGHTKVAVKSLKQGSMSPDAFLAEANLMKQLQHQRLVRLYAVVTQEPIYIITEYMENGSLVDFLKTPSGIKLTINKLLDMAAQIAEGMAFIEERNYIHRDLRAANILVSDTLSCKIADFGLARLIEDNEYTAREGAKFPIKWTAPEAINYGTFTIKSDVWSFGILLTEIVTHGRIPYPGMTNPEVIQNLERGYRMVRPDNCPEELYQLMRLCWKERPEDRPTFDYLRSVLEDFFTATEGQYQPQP

[4] = target: Proto-oncogene tyrosine-protein kinase Src (Homo sapiens, UniProt P12931); assay: Inhibitory activity against p60 c-Src tyrosine kinase
Proto-oncogene tyrosine-protein kinase Src, sequence (P12931 2-536 limits assumed): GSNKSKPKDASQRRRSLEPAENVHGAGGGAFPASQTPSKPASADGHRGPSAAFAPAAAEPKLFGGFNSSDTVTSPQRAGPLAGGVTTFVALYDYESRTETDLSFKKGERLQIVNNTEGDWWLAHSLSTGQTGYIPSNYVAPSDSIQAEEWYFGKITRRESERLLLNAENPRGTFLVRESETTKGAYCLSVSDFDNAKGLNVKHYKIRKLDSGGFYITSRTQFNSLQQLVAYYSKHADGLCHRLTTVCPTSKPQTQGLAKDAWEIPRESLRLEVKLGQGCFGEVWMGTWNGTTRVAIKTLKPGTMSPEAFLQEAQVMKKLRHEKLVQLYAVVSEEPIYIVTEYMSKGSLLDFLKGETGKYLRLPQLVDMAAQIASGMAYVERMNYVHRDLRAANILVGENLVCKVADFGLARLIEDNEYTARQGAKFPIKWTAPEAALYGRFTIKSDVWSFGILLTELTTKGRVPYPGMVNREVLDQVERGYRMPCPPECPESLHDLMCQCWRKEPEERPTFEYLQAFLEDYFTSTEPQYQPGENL

Tyrosine-protein kinase Fyn, sequence (P06241 whole entry): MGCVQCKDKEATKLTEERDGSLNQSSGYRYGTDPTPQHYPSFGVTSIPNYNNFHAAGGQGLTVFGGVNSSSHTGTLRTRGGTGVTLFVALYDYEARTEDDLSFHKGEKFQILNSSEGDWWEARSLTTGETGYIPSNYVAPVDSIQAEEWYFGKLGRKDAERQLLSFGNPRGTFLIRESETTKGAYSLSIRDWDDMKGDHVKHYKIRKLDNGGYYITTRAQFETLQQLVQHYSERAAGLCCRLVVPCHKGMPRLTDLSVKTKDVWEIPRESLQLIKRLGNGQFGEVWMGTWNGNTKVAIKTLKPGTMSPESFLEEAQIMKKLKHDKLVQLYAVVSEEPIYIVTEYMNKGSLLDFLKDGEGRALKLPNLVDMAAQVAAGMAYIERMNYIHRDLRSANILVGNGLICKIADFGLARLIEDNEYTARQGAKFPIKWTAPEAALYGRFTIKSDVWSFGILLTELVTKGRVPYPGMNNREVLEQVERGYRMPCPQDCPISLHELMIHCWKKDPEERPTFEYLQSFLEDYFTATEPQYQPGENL
Tyrosine-protein kinase Lyn, sequence (P07948 whole entry): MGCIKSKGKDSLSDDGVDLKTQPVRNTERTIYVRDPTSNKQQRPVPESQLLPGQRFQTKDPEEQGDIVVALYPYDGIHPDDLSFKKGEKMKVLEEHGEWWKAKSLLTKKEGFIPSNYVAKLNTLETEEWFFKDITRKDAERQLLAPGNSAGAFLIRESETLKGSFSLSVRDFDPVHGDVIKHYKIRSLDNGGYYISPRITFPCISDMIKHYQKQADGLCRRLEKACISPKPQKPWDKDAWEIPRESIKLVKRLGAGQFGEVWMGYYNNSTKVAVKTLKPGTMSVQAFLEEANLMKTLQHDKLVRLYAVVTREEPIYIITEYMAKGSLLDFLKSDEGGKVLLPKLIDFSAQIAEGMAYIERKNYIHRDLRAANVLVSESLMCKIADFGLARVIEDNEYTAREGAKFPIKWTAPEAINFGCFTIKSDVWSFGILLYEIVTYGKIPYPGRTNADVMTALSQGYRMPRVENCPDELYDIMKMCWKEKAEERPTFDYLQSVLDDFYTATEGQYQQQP

| Compound | IC50 [1] [µM] | IC50 [2] [µM] | IC50 [3] [µM] | IC50 [4] [µM] |
| --- | --- | --- | --- | --- |
| N=c1oc2c(O)c(O)ccc2cc1C(=O)Nc1ccccc1CO | > 61.3 | > 61.3 |  |  |
| N=c1oc2cc(O)cc(O)c2cc1C(=O)Nc1ccccc1O | > 16 |  |  |  |
| N=c1oc2ccccc2cc1C(=O)Nc1ccccc1O |  |  |  | > 71.4 |
| N=c1oc2c(O)cccc2cc1C(=O)Nc1ccc(O)cc1 |  | > 67.5 |  |  |
| N=c1oc2c(O)c(O)ccc2cc1C(=O)Nc1ccc(O)cc1 | > 64 | > 64 |  |  |
| N=c1oc2c(O)c(O)ccc2cc1C(=O)Nc1ccccc1O | > 64 | > 64 |  |  |
| N=c1oc2c(O)c(O)ccc2cc1C(=O)Nc1ccccc1 | > 67.5 | > 67.5 | > 67.5 | > 67.5 |
| N=c1oc2c(O)cccc2cc1C(=O)Nc1cccc(CO)c1 | 64.5 | 9.67 |  |  |
| N=c1oc2c(O)cccc2cc1C(=O)Nc1ccccc1O | > 67.5 | > 67.5 |  | > 33.8 |
| N=c1oc2c(O)c(O)ccc2cc1C(=O)Nc1cccc(CO)c1 |  | > 61.3 | > 61.3 |  |
| N=c1oc2ccccc2cc1C(=O)Nc1ccc(O)cc1 |  |  |  | > 71.4 |

Continued, values first:

| IC50 [1] [µM] | IC50 [2] [µM] | IC50 [3] [µM] | IC50 [4] [µM] | Compound |
| --- | --- | --- | --- | --- |
|  |  | > 32.2 | > 32.2 | COc1ccc2cc(C(=O)Nc3ccc(O)cc3)c(=N)oc2c1 |
|  |  | > 33.8 |  | N=c1oc2cc(O)ccc2cc1C(=O)Nc1ccc(O)cc1 |
|  |  | > 33.8 |  | N=c1oc2cc(O)ccc2cc1C(=O)Nc1cccc(O)c1 |
|  |  | > 33.8 |  | N=c1oc2ccc(O)cc2cc1C(=O)Nc1cccc(O)c1 |
|  | > 64 |  |  | N=c1oc2c(O)c(O)ccc2cc1C(=O)Nc1cccc(O)c1 |
|  |  | > 33.8 |  | N=c1oc2ccc(O)cc2cc1C(=O)Nc1ccc(O)cc1 |
| < 33.8 |  |  |  | N=c1oc2c(O)cccc2cc1C(=O)Nc1cccc(O)c1 |
